Experimental data: patent publication US8293462B2, “Method of preserving early mammalian embryos by vitrification” (Central Institute for Experimental Animals, priority 2005, dated 2012)

Tested on: marmoset ES cells, cell line No. 40
Assay: Survival of ES cell clumps after thaw, cell line No. 40
Format: cell-based, common marmoset (Callithrix jacchus)
Conditions: FIG. 1
Source text: As marmoset ES cells, two cell lines, i.e., No. 40 and No. 20, which were established by the Central Institute for Experimental Animals (Japan), were employed (Sasaki E. et al., 2005, Establishment of Novel Embryonic Stem Cell Lines Derived from the Common Marmoset (Callithrix jacchus), Stem Cells. (in press)). The cell clumps separated via trypsin treatment were recovered with an egg-sampling pipette and used in the preservation experiment.
In the method of preservation by vitrification according to the present invention, […] PB1, 10% propylene glycol, 30% ethylene glycol, 20% Percoll®(t, and 0.3 M sucrose were used. In thaw, the SPB1 solution comprising PB1 and 0.3 M sucrose was used.
In preservation of the control embryos by vitrification (Fujioka T. et al., Int. J. Dev. Biol. 48: 1149-1154), a DAP213 solution comprising PB1, 2 mol of DMSO, 1 mol of acetamide, and 3 mol of propylene glycol was used. In slow freezing (Reubinoff B. E. et al., Human Reprod. Vol. 16, No. 10, 2187-2194), the SF solution comprising 10% DMSO in FCS was used.
Subsequently, the cell clumps were introduced into a preservation tube (Nunc 375353) with 5 μl of P10, followed by cooling at 0° C. for 1 minute. Thereafter, 95 μl of PEPeS, which had been cooled to 0° C., was introduced into the tube. […]

CC(O)CO (centres unmarked) [propylene glycol]
survival rate after thaw compared with control that had not been preserved (pretreatment solution PB1 + 5% propylene glycol, 4 days after initiation of culture): significantly lower
survival rate after thaw compared with control that had not been preserved (pretreatment solution PB1 + 15% propylene glycol, 4 days of culture): did not differ from the control embryos
